Assay: Stability of reconstituted [^18F]-FPPEGA in 1× PBS buffer
Format: physicochemical
Conditions: 37° C.
Experimental: An aqueous [^18F]-Fluoride solution (2.0 ml, 33.3 GBq/900 mCi) was purchased from P.E.T. Net® Pharmaceuticals in West Point PA and directly transferred to a Sep-Pak light QMA [The Sep-Pak light QMA cartridge was pre-conditioned sequentially with 5 ml of 0.5 M potassium bicarbonate, 5 ml of deionized water, and 5 ml of MeCN before use.] Upon completion of this transfer, the aqueous [^18F] fluoride was released from the QMA Sep-Pak by the sequential addition of potassium carbonate (15 mg/ml; 0.1 ml) followed by a mixture of potassium carbonate (30 mg/ml, 0.1 ml), 4,7,13,16,21,24-hexaoxa-1,10-diazabicyclo[8.8.8]hexacosane (15 mg, 0.04 mmol) and 1.2 ml of MeCN. The solvent was evaporated under a gentle stream of nitrogen at 90° C. and vacuum. Azeotropic drying was repeated twice with 1 ml portions of acetonitrile to generate the anhydrous K.2.2.2/K[^18F]F complex. […] The entire contents of the crude reaction mixture was then transferred, loaded, and purified using reverse phase HPLC under the following conditions: HPLC Column: Luna C18 250×10 Solvent A: 0.1% TFA in DI water; solvent B: 0.1% TFA in acetonitrile at a flow rate of 4.6 ml/minute using isocratic method 32% B while the UV was monitored at 280 nm. […]

[N-]=[N+]=NCCOCCOCCOCCOc1cccnc1[18F] [[^18F]-3-(2-(2-(2-(2-azidoethoxy)ethoxy)ethoxy)ethoxy)-2-fluoropyridine]
stable in 100% 1× PBS buffer: over 1 hour

Source: patent US11103605B2, “PET-imaging immunomodulators” (BRISTOL-MYERS SQUIBB COMPANY, priority 2016, dated 2021)
